6 molecules from ChEMBL document CHEMBL6087436, “The novel β-hairpin antimicrobial peptide D-G(RF)3 demonstrates exceptional antibacterial efficacy” (Eur J Med Chem, 2025) can be followed below.

As a reminder, the MIC is the lowest concentration that inhibits growth of the organism.

One series concerns Pseudomonas aeruginosa. Kind of series: Antibacterial activity against Pseudomonas aeruginosa ATCC 27853 assessed as inhibition of bacterial growth incubated for 18 hrs by microbroth dilution assay. It is filed as functional. In general terms: Dilution methods test growth across graded concentrations, often in twofold steps.
The test system of the next series is Klebsiella pneumoniae. Kind of series: Antibacterial activity against Klebsiella pneumoniae ATCC 700603 assessed as inhibition of bacterial growth incubated for 18 hrs by microbroth dilution assay. It counts as functional.
The subject of another series is Staphylococcus aureus. Kind of series: Antibacterial activity against Staphylococcus aureus ATCC 25923 assessed as inhibition of bacterial growth incubated for 18 hrs by microbroth dilution assay. It is filed as functional.
Series [1] concerns Staphylococcus epidermidis. The series is described as follows: Antibacterial activity against Staphylococcus epidermidis ATCC 12228 assessed as inhibition of bacterial growth incubated for 18 hrs by microbroth dilution assay. It counts as functional.
A further series deals with Bacillus subtilis. The series is described as follows: Antibacterial activity against Bacillus subtilis ATCC 23857 assessed as inhibition of bacterial growth incubated for 18 hrs by microbroth dilution assay. It counts as functional.
In another series the test system is Escherichia coli. Kind of series: Antibacterial activity against Escherichia coli ATCC 25922 assessed as inhibition of bacterial growth incubated for 18 hrs by microbroth dilution assay. It counts as functional.
Series [2] in a line: Hemolytic activity in Kunming mouse erythrocytes assessed as hemolysis incubated for 1 hr by multimode reader analysis. It counts as toxicity, cell-based. To be noted: erythrocyte.
Series [3] is described as follows: Retention time of the compound by RP-HPLC analysis. It counts as physicochemical.

Values after ≈ are worked out from the molar mass of the structure shown. Where a SMILES comes first, the peptide text is derived from it. Bridges are numbered along the chain shown (N, C = ends). [ ]: non-standard residue; d: D form. The star is where a group is joined. Ileψ(thiazoline)Cys = CC[C@H](C)[C@H](N)C1=N[C@H](C(=O)*)CS1; dOrn = NCCC[C@@H](N)C(=O)O

On to `CC[C@H](C)[C@H](N)C1=N[C@H](C(=O)N[C@@H](CC(C)C)C(=O)N[C@H](CCC(=O)O)C(=O)N[C@H](C(=O)N[C@H]2CCCCNC(=O)[C@H](CC(N)=O)NC(=O)[C@@H](CC(=O)O)NC(=O)[C@H](Cc3cnc[nH]3)NC(=O)[C@@H](Cc3ccccc3)NC(=O)[C@H]([C@@H](C)CC)NC(=O)[C@@H](CCCN)NC2=O)[C@@H](C)CC)CS1` [BACITRACIN] ({Ileψ(thiazoline)Cys}-L[dE]IK[dOrn]I[dF]H[dD]N; lactam 4-C), for which the MIC in the series on Pseudomonas aeruginosa was above 128 µM; with Klebsiella pneumoniae it was above 128 µM; with Staphylococcus aureus, 32 µM (≈ 45.5 µg/mL); in series [1] it was 16 µM (≈ 22.8 µg/mL); in the series on Bacillus subtilis, above 128 µM; in the series on Escherichia coli, above 128 µM.
`N=C(N)NCCC[C@H](NC(=O)CNC(=O)[C@H]1CCCN1C(=O)[C@H](CCCNC(=N)N)NC(=O)[C@H](Cc1ccccc1)NC(=O)[C@H](CCCNC(=N)N)NC(=O)[C@@H](N)Cc1ccccc1)C(=O)N[C@@H](Cc1ccccc1)C(=O)N[C@@H](CCCNC(=N)N)C(=O)N[C@@H](Cc1ccccc1)C(N)=O`: the MIC was 4 µM (≈ 5.54 µg/mL) in the series with Pseudomonas aeruginosa; above 128 µM in the series on Klebsiella pneumoniae; 32 µM (≈ 44.3 µg/mL) in the series with Staphylococcus aureus; 16 µM (≈ 22.2 µg/mL) in series [1]; 8 µM (≈ 11.1 µg/mL) in the series with Bacillus subtilis; 64 µM (≈ 88.6 µg/mL) with Escherichia coli. Further, the MHC10 in series [2] is above 256 µM. In addition, the Retention_time in series [3] was 13.555 min.
Turning to `NCCCC[C@H](NC(=O)[C@H](Cc1c[nH]c2ccccc12)NC(=O)[C@H](CCCCN)NC(=O)[C@H](Cc1c[nH]c2ccccc12)NC(=O)[C@H](CCCCN)NC(=O)CNC(=O)[C@H]1CCCN1C(=O)[C@H](CCCCN)NC(=O)[C@H](Cc1c[nH]c2ccccc12)NC(=O)[C@H](CCCCN)NC(=O)[C@H](Cc1c[nH]c2ccccc12)NC(=O)[C@@H](N)CCCCN)C(N)=O`, the minimal inhibitory concentration (MIC) with Pseudomonas aeruginosa came out at 32 µM (≈ 53.9 µg/mL); with Klebsiella pneumoniae, 64 µM (≈ 108 µg/mL); with Staphylococcus aureus, 32 µM (≈ 53.9 µg/mL); in series [1] it was 4 µM (≈ 6.74 µg/mL); in the series on Bacillus subtilis it was 2 µM (≈ 3.37 µg/mL); in the series on Escherichia coli, 16 µM (≈ 27 µg/mL). In series [2], the MHC10 was above 256 µM. Also, in series [3], the Retention_time came out at 12.66 min.
Regarding `NC[C@H]1O[C@H](O[C@H]2[C@H](O)[C@@H](O[C@H]3O[C@H](CO)[C@@H](O)[C@H](N)[C@H]3O)[C@H](N)C[C@@H]2N)[C@H](O)[C@@H](O)[C@@H]1O` [KANAMYCIN], the MIC was above 128 µM with Pseudomonas aeruginosa; 64 µM (≈ 31 µg/mL) in the series on Klebsiella pneumoniae; below 1 µM with Staphylococcus aureus; above 128 µM in series [1]; below 1 µM in the series on Bacillus subtilis; 8 µM (≈ 3.88 µg/mL) with Escherichia coli.
As to `C[C@@H](O)[C@H]1C(=O)N2C(C(=O)O)=C(SCCNC=N)C[C@H]12` [IMIPENEM ANHYDROUS], the MIC in the series on Pseudomonas aeruginosa is 16 µM (≈ 4.79 µg/mL); in the series on Klebsiella pneumoniae, below 1 µM; with Staphylococcus aureus, below 1 µM; in series [1], below 1 µM; in the series with Bacillus subtilis it was below 1 µM; in the series with Escherichia coli it was below 1 µM.
For the molecule `CO[C@H]1/C=C/O[C@@]2(C)Oc3c(C)c(O)c4c(O)c(c(/C=N/N5CCN(C)CC5)c(O)c4c3C2=O)NC(=O)/C(C)=C\C=C\[C@H](C)[C@H](O)[C@@H](C)[C@@H](O)[C@@H](C)[C@H](OC(C)=O)[C@@H]1C` [RIFAMPIN], the minimum inhibitory concentration (MIC) is 32 µM (≈ 26.3 µg/mL) in the series with Pseudomonas aeruginosa; 64 µM (≈ 52.7 µg/mL) with Klebsiella pneumoniae; below 1 µM in the series with Staphylococcus aureus; below 1 µM in series [1]; below 1 µM with Bacillus subtilis; 16 µM (≈ 13.2 µg/mL) with Escherichia coli.
